# Results published in patent US10271552B2, “Heterocyclic compounds as pesticides” (Bayer CropScience Aktiengesellschaft, priority 2015, dated 2019).
# Experiments:
# Format in all cases: in vivo
# Tetranychus urticae = Tetranychus urticae spray test OP-resistant; details: foliar, 144 h, French bean leaf disks, all instars, after 6 days
# Protocol: Tetranychus urticae—Spray Test OP-Resistant
# (§1) Solvent: 78.0 parts by weight acetone • 1.5 parts by weight dimethylformamide
# (§2) Emulsifier: alkylarylpolyglycol ether
# (§3) To produce a suitable preparation of active compound, 1 part by weight of active compound is mixed with the stated amount of solvents and is diluted with water, containing an emulsifier concentration of 1000 ppm, to the desired concentration. Further test concentrations are prepared by dilution with emulsifier containing water.
# French bean (Phaseolus vulgaris) leaf disks infected with all instars of the two spotted spidermite (Tetranychus urticae), are sprayed with a preparation of the active ingredient of the desired concentration.
# After 6 days mortality in % is determined. 100% means all spider mites have been killed and 0% means none of the spider mites have been killed.
# Haemonchus contortus = Haemonchus contortus test; details: Haemonchus contortus, 120 h, read-out: larval mortality (efficacy)
# Protocol: Haemonchus contortus—Test
# (§4) Solvent: dimethyl sulfoxide
# To produce a suitable preparation of active compound, 10 mg of active compound are dissolved in 0.5 ml solvent, and the concentrate is diluted with “Ringer's solution” to the desired concentration.
# Approximately 40 larvae of the red stomach worm (Haemonchus contortus) are transferred into a test tube containing compound solution.
# After 5 days the percentage of larval mortality is recorded. 100% efficacy means all larvae are killed, 0% efficacy means no larvae are killed.
# Nezara viridula [1] = assay: Nezara viridula spray test (solvent 52.5 acetone / 7 dimethylformamide); details: 96 h, barley plants, larvae, after 4 days
# Protocol: (§5) Nezara viridula—Spray Test
# (§6) Solvent: 52.5 parts by weight of acetone • 7 parts by weight of dimethylformamide
# (§7) Emulsifier: alkylaryl polyglycolether
# (§8) To produce a suitable preparation of active compound, 1 part by weight of active compound is mixed with the stated amount of solvent, and the concentrate is diluted with water, containing an emulsifier concentration of 1000 ppm, to the desired concentration. Ammonium salt and/or penetration enhancer in a dosage of 1000 ppm are added to the desired concentration if necessary.
# (§9) Barley plants (Hordeum vulgare) infested with larvae of the southern green stink bug (Nezara viridula) are sprayed with a test solution containing the desired concentration of the active ingredient.
# (§10) After 4 days mortality in % is determined. 100% means all the stink bugs have been killed; 0% means none of the stink bugs have been killed.
# Meloidogyne incognita = Meloidogyne incognita test; details: 20 ppm; eggs and larvae, salad seeds in sand; after 14 days
# Protocol: Meloidogyne incognita—Test
# Solvent: 125.0 parts by weight of acetone
# To produce a suitable preparation of active compound, 1 part by weight of active compound is mixed with the stated amount of solvent, and the concentrate is diluted with water to the desired concentration.
# Vessels are filled with sand, a solution of the active ingredient, a suspension containing eggs and larvae of the southern root-knot nematode (Meloidogyne incognita) and salad seeds. The salad seeds germinate and the seedlings grow. Galls develop in the roots.
# After 14 days the nematicidal activity is determined on the basis of the percentage of gall formation. 100% means no galls were found and 0% means the number of galls found on the roots of the treated plants was equal to that in untreated control plants.
# Phaedon cochleariae = Phaedon cochleariae spray test; details: foliar, 168 h, Chinese cabbage leaf disks, larvae, after 7 days
# Protocol: Phaedon cochleariae—Spray Test
# (§11) Solvent: 78.0 parts by weight of acetone • • 1.5 parts by weight of dimethylformamide
# as §2, §3
# Chinese cabbage (Brassica pekinensis) leaf disks are sprayed with a preparation of the active ingredient of the desired concentration. Once dry, the leaf disks are infested with mustard beetle larvae (Phaedon cochleariae).
# After 7 days mortality in % is determined. 100% means all beetle larvae have been killed and 0% means none of the beetle larvae have been killed.
# Ctenocephalides felis [2] = assay: whole plant or invertebrate; details: po, 48 h
# Protocol: Ctenocephalides felis—Oral Test
# as §4
# To produce a suitable preparation of active compound, 10 mg of active compound are dissolved in 0.5 ml solvent, and the concentrate is diluted with cattle blood to the desired concentration.
# Approximately 20 adult unfed cat fleas (Ctenocephalides felis) are placed in flea chambers. The blood chamber, sealed with parafilm on the bottom, are filled with cattle blood supplied with compound solution and placed on the gauze covered top of the flea chamber, so that the fleas are able to suck the blood. The blood chamber is heated to 37° C. whereas the flea chamber is kept at room temperature.
# After 2 days mortality in % is determined. 100% means all the fleas have been killed; 0% means none of the fleas have been killed.
# Boophilus microplus = Boophilus microplus injection test; details: 20 μg/animal injected; adult engorged female ticks; after 7 days
# Protocol: Boophilus microplus—Injection Test
# as §4
# To produce a suitable preparation of active compound, 10 mg of active compound are dissolved in 0.5 ml solvent, and the concentrate is diluted with solvent to the desired concentration.
# Five adult engorged female ticks (Boophilus microplus) are injected with 1 μl compound solution into the abdomen. The ticks are transferred into replica plates and incubated in a climate chamber.
# After 7 days egg deposition of fertile eggs is monitored. Eggs where fertility is not visible are stored in a climate chamber till hatching after about 42 days. An efficacy of 100% means all eggs are infertile; 0% means all eggs are fertile.
# Plutella xylostella = Plutella xylostella spray test; details: 100 ppm; cabbage leaves, larvae; after 7 days
# Protocol: Plutella xylostella—Spray Test
# Solvent: 14 parts by weight of dimethylformamide
# Emulsifier: alkylaryl polyglycol ether
# as §3, with “solvent” for “solvents”
# Cabbage leaves (Brassica oleracea) are treated by being sprayed with the preparation of the active compound of the desired concentration and are infested with larvae of the diamondback moth (Plutella xylostella).
# After 7 days, mortality in % is determined. 100% means all the caterpillars have been killed and 0% means none of the caterpillars have been killed.
# Lucilia cuprina = assay: whole plant or invertebrate; details: 48 h
# Protocol: as §4
# 10 mg active compound are dissolved in 0.5 ml Dimethylsulfoxid. Serial dilutions are made to obtain the desired rates.
# Approximately 20 1st instar larvae of the Australian sheep blowfly (Lucilia cuprina) are transferred into a test tube containing minced horse meat and compound solution of the desired concentration.
# After 2 days mortality in % is determined. 100% means all the larvae have been killed; 0% means none of the larvae have been killed.
# Musca domestica = Musca domestica test
# Protocol: as §4
# To produce a suitable preparation of active compound, 10 mg of active compound are dissolved in 0.5 ml solvent, and the concentrate is diluted with water to the desired concentration.
# 10 adult house flies (Musca domestica) are transferred into a container, containing a sponge soaked with a mixture of sugar solution and compound solution of the desired concentration.
# After 2 days mortality in % is determined. 100% means all the flies have been killed; 0% means none of the flies have been killed.
# Ctenocephalides felis [3] = assay: Ctenocephalides felis in-vitro contact test, adult cat flea; details: 5 μg/cm^2 (=500 g/ha), after 48 hours
# Protocol: Ctenocephalides felis—In-Vitro Contact Tests Adult Cat Flea
# 9 mg compound is solved in 1 ml acetone and diluted with acetone to the desired concentration. 250 μl of the test solution is filled in 25 ml glass test tubes and homogeneously distributed on the inner walls by rotation and tilting on a shaking device (2 h at 30 rpm). With a compound concentration of 900 ppm, an inner surface of 44.7 cm^2 and a homogeneous distribution, a dose of 5 μg/cm^2 is achieved.
# After the solvent has evaporated, each test tube is filled with 5-10 adult cat fleas (Ctenocephalides felis), closed with a perforated lid and incubated in a lying position at room temperature and relative humidity. After 48 hours efficacy is determined. The fleas are patted on the ground of the tubes and are incubated on a heating plate at 45-50° C. for at most 5 minutes. Immotile or uncoordinated moving fleas, which are not able to escape the heat by climbing upwards, are marked as dead or moribund.
# An efficacy of 100% means all fleas are dead or moribund; 0% means no fleas are dead or moribund.
# Myzus persicae = Myzus persicae spray test; details: foliar, Chinese cabbage leaf disks, all instars, after 5-6 days
# Protocol: Myzus persicae—Spray Test
# as §1, §2, §3
# Chinese cabbage (Brassica pekinensis) leaf disks infected with all instars of the green peach aphid (Myzus persicae), are sprayed with a preparation of the active ingredient of the desired concentration.
# After 5-6 days mortality in % is determined. 100% means all aphids have been killed and 0% means none of the aphids have been killed.
# Spodoptera frugiperda = Spodoptera frugiperda spray test; details: 168 h, maize leaf sections, larvae, after 7 days
# Protocol: Spodontera frugiperda—Spray Test
# as §1, §2, §3
# Maize (Zea mays) leaf sections are sprayed with a preparation of the active ingredient of the desired concentration. Once dry, the leaf sections are infested with fall armyworm larvae (Spodoptera frugiperda).
# After 7 days mortality in % is determined. 100% means all caterpillars have been killed and 0% means none of the caterpillars have been killed.
# Nezara viridula [4] = assay: Nezara viridula spray test (solvent 78.0 acetone / 1.5 dimethylformamide); details: 96 h, barley plants, larvae, after 4 days
# Protocol: as §5, §11, §2
# as §3, with “solvent,” for “solvents”, “and the concentrate” for “and”
# as §9, §10
# Diabrotica balteata = Diabrotica balteata spray test; details: 160 μg/well; germinated wheat seeds, larvae; after 7 days
# Protocol: Diabrotica Balteata—Spray Test
# as §11, §2
# as §3, with “solvent,” for “solvents”, “and the concentrate” for “and”
# Soaked wheat seeds (Triticum aestivum) are placed in a multiple well plate filled with agar and some water and are incubated for 1 day to germinate (5 seeds per well). The germinated wheat seeds are sprayed with a test solution containing the desired concentration of the active ingredient. Afterwards each unit is infected with 10-20 larvae of the banded cucumber beetle (Diabrotica balteata).
# After 7 days efficacy in % is determined. 100% means all the seedlings have grown up like in the untreated, uninfected control; 0% means none of the seedlings have grown.
# Nilaparvata lugens = Nilaparvata lugens spray test (solvent 52.5 acetone / 7 dimethylformamide); details: 96 h, rice plants, larvae, after 4 days
# Protocol: Nilaparvata lugens—Spray Test
# as §6, §7
# as §8, with “solvents” for “solvent,”, “and” for “and the concentrate”, “concentration. Further test concentrations are prepared by dilution with emulsifier containing water.” for “concentration.”
# Rice plants (Oryza sativa) are treated by being sprayed with the desired concentration of the active compound and are infested with larvae of the brown planthopper (Nilaparvata lugens).
# After 4 days mortality in % is determined. 100% means all planthoppers have been killed and 0% means none of the planthoppers have been killed.
SMILES,mortality at 500 g/ha (Tetranychus urticae) [%],mortality at 500 g/ha (Nezara viridula [1]) [%],nematicidal activity (gall formation) (Meloidogyne incognita) [%],mortality at 500 g/ha (Phaedon cochleariae) [%],mortality at 100 ppm (Ctenocephalides felis [2]) [%],efficacy (infertile eggs) (Boophilus microplus) [%],mortality (Plutella xylostella) [%],further results
"O=C(Nc1nc(-c2c(F)cccc2F)ns1)c1c(F)cccc1F [Compound I-1-1, N-[3-(2,6-difluorophenyl)-1,2,4-thiadiazol-5-yl]-2,6-difluorobenzamide]",≥ 70,≥ 90,90,≥ 80,95,100,–,mortality at 20 ppm (Haemonchus contortus): 80%
O=C(Nc1nc(-c2c(F)cccc2F)ns1)c1ccccc1[N+](=O)[O-] [Compound I-1-10],–,–,100,–,–,–,100,–
O=C(Nc1nc(-c2c(F)cccc2F)ns1)c1cccc(F)c1C(F)(F)F [Compound I-1-11],–,–,–,–,–,100,100,–
O=C(Nc1nc(-c2c(F)cccc2F)ns1)c1c(F)cccc1C(F)(F)F [Compound I-1-12],–,–,100,–,–,100,100,–
"O=C(c1cccnc1C(F)(F)F)N(C(=O)c1cccnc1C(F)(F)F)c1nc(-c2c(F)cccc2F)ns1 [Compound I-1-31, N-[3-(2,6-Difluorophenyl)-1,2,4-thiadiazol-5-yl]-2-(trifluoromethyl)-N-{[2-(trifluoromethyl)pyridin-3-yl]carbonyl}nicotinamide]",≥ 70,≥ 90,–,≥ 80,100,100,–,"mortality at 100 ppm (Lucilia cuprina): 100%; mortality at 100 ppm (Musca domestica; Musca domestica, 48 h): 80%; efficacy (fleas dead or moribund) (Ctenocephalides felis [3]): 100%"
"O=C(Nc1nc(-c2ccccc2OC(F)(F)F)ns1)c1cccnc1C(F)(F)F [Compound I-1-55, N-{3-[2-(Trifluoromethoxy)phenyl]-1,2,4-thiadiazol-5-yl}-2-(trifluoromethyl)nicotinamide]",≥ 70,≥ 90,–,≥ 80,100,100,–,mortality at 100 ppm (Lucilia cuprina): 100%; mortality at 500 g/ha (Myzus persicae): ≥ 70%; mortality at 500 g/ha (Spodoptera frugiperda): ≥ 80%; mortality at 500 g/ha (Nezara viridula [4]): ≥ 90%; efficacy (seedling growth) (Diabrotica balteata): 100%
O=C(Nc1nc(-c2ccccc2F)ns1)c1cccnc1C(F)(F)F [Compound I-1-57],–,–,–,–,–,100,–,"mortality (Musca domestica; 100 ppm, adult house flies, after 2 days): 100%; efficacy (seedling growth) (Diabrotica balteata): 100%"
"O=C(Nc1nc(-c2cccc(C(F)(F)F)c2Cl)ns1)c1cccnc1C(F)(F)F [Compound I-1-62, N-{3-[2-Chloro-3-(trifluoromethyl)phenyl]-1,2,4-thiadiazol-5-yl}-2-(trifluoromethyl)nicotinamide]",≥ 70,≥ 90,–,≥ 80,–,–,–,mortality at 500 g/ha (Myzus persicae): ≥ 70%; mortality at 500 g/ha (Spodoptera frugiperda): ≥ 80%; mortality at 500 g/ha (Nezara viridula [4]): ≥ 90%; mortality at 500 g/ha (Nilaparvata lugens): ≥ 80%
